pEC50: −log10 of the molar value.
Test system: THP-1 viability, CellTiter-Glo luminescence, 72 h
Assay: human monocytic cell viability reduction – S. typhimurium screen hits, cytotoxicity control for Salmonella PhoP regulon inhibitors, dose response (AID 2253)

CCOC(=O)c1sc(NC(=O)Nc2ccc(Cl)cc2)cc1C
pEC50: 4.99

CC[n+]1c(/C=C/c2ccc(N(C)C)cc2)ccc2ccccc21
pEC50: 6.19

COc1cc([N+](=O)[O-])cc(/C=N/NC(=O)c2cccnc2)c1O
pEC50: 4.49

CCc1ccc(-c2nn(-c3ccccc3)cc2CSC(=N)N)cc1
pEC50: 5.19

CC(CO)(CO)NCc1ccc(-c2ccccc2)cc1
pEC50: 4.82

N#CC1=C(N)N=C(SCc2cccc3ccccc23)C(C(N)=O)C12CCCCC2 (stereo not given)
pEC50: 4.68

N=c1n(Cc2ccc(Cl)cc2)c2ccccc2n1CC(O)c1ccco1 (stereo not given)
pEC50: 4.93

Cc1c(C(=O)Nc2cccc(Cl)c2)c2ccccn2c1CCc1ccncc1
pEC50: 4.61

Cc1ccc(C(=O)O)cc1N=Cc1cc(Br)cc(Br)c1O
pEC50: 4.43

Clc1ccc(Cn2ncc3c(NCc4ccco4)ncnc32)c(Cl)c1
pEC50: 5.17

CN1CCN(C(c2ccc(Br)cc2)c2cc(Cl)c3cccnc3c2O)CC1 (stereo not given)
pEC50: 5.41

CCCCNCCCOc1cccc(Cl)c1Cl
pEC50: 4.53

O=[N+]([O-])c1ccc(Sc2nc3ccccc3o2)c([N+](=O)[O-])c1
pEC50: 5.71

O=c1c(Cl)c(Cl)cnn1-c1ccccc1
pEC50: 5.85

COC(=O)c1cc(C)nc2c1C(=O)C(=O)C=C2N1CCOCC1
pEC50: 5.53

CNc1nc(-c2ccccn2)nnc1-c1ccccc1
pEC50: 5.08

O=C1c2[nH]nc(-c3ccccc3O)c2C(c2ccc(F)cc2)N1Cc1ccco1 (stereo not given)
pEC50: 4.70

Cc1ccc(S(=O)(=O)/N=C2/C=C(Sc3ncn[nH]3)C(=O)c3ccccc32)cc1
pEC50: 5.67

O=C1NC(=S)S/C1=C\C=C\c1ccc([N+](=O)[O-])o1
pEC50: 5.04

CCOC(=O)N1CCN(C(c2cccnc2)c2ccc3cccnc3c2O)CC1 (stereo not given)
pEC50: 5.03

CC1CCCC(C)N1/N=C/c1c[nH]c2ccc(Br)cc12 (stereo not given)
pEC50: 4.84

CCn1c(C)cc(=S)c2ccccc21
pEC50: 4.32

Cc1ccc(C)c(-c2nc3ccc(N)cc3[nH]2)c1
pEC50: 4.98

O=c1cc2oc3cc(O)c(O)cc3c(-c3ccccc3[N+](=O)[O-])c-2cc1O
pEC50: 4.98

Oc1c(CN2CCN(c3ccc(F)cc3)CC2)cc(Cl)c2cccnc12
pEC50: 5.20

COc1ccc(NS(=O)(=O)c2cc(C)ccc2NC(=O)c2cc(C)oc2C)cc1
pEC50: 6.59

CCN1/C(=C/C=C/C=C/c2sc3ccccc3[n+]2CC)Sc2ccccc21
pEC50: 5.34

O=[N+]([O-])c1cc(Cl)c2cccnc2c1O
pEC50: 4.56

Oc1ccc(/C=N/Nc2nccnc2Cl)c(O)c1
pEC50: 5.86

CC(C)(C)c1ccc(C(=O)NC(=S)NCc2cccnc2)cc1
pEC50: 4.33

COc1ccc(C(C[N+](=O)[O-])c2c(-c3ccccc3)cc3ccccn23)cc1 (stereo not given)
pEC50: 4.89

O=C(N/N=C/c1cc([N+](=O)[O-])ccc1O)c1ccncc1
pEC50: 4.82

Cc1ccc(C)c(/C=C/C(=O)c2ccccc(=O)c2O)c1
pEC50: 5.02

Cc1onc(-c2ccccc2)c1C(=O)NC(=S)NNC(=O)c1ccc(O)cc1O
pEC50: 5.73

O=C(N/N=C/c1c[nH]c2ccccc12)c1cc(-c2cccc3ccccc23)n[nH]1
pEC50: 4.86

O=C1C=C(N2CCOCC2)c2ccccc2C1=O
pEC50: 5.16

CCN(CC)c1ccc(/C=N/NC(=S)NCc2ccccc2)c(O)c1
pEC50: 5.12

CCCCCc1ccc(OCCOCCn2c[n+](C)c3ccccc32)c(CCCCC)c1
pEC50: 5.87

Nc1nonc1C(=O)N/N=C/c1cc(Br)ccc1O
pEC50: 5.51

COc1ccc(/C=N/Nc2cc(C)nc3c(C)cccc23)cc1
pEC50: 5.14

O=C(Nc1ccc(S(=O)(=O)N2CCCC2)cc1)c1ccc(CN2CCc3ccccc3C2)cc1
pEC50: 4.58

O=C(N/N=C/C1CC=CCC1)c1ccc(Cl)cc1O (stereo not given)
pEC50: 4.58

O=C1c2cccc(OCC(=O)N3N=C(c4cccs4)CC3c3ccc(F)cc3)c2CCN1Cc1cccnc1 (stereo not given)
pEC50: 4.32

O=C(c1ccccc1)C(CN1CCCC1)c1ccccc1 (stereo not given)
pEC50: 5.25

NC(N)=NN=C1CCCCCCCCCCC1
pEC50: 5.12

CCOC(=O)C(C)/C(C)=N/NC(=O)c1cc2ccccc2cc1O (stereo not given)
pEC50: 5.16

C#CCOCCOCCOCCNc1nc(N2CCN(C(=O)CCCCCCCCCCNC(=O)[C@H]([C@@H](C)CC)n3cc(CCCCN=C(N)N)nn3)CC2)nc(N2CCN(C(=O)CCCCCCCCCCNC(=O)[C@H]([C@@H](C)CC)n3cc(CCCCN=C(N)N)nn3)CC2)n1
pEC50: 5.36

S=C(NCc1cccnc1)Nc1ccc(Cl)c(Cl)c1
pEC50: 4.40

Cc1ccc([N+](=O)[O-])cc1-c1ccc(/C=C(\C#N)c2[nH]nc(N)c2C#N)o1
pEC50: 5.23

COc1ccc(C(C[N+](=O)[O-])n2nc(C)cc2C)cc1 (stereo not given)
pEC50: 5.00

Cc1nnc(N/N=C/c2ccccn2)[nH]c1=O
pEC50: 6.09

O=C(Cc1ccccc1)Nc1cccc(N2C(=O)C=CC2=O)c1
pEC50: 4.79

O=S1(=O)CCC(NC(=S)SCCOc2ccccc2)C1 (stereo not given)
pEC50: 4.79

CCCCCCCCCC[N+](C)(C)CC/C=C1/c2ccccc2Sc2ccc(Cl)cc21
pEC50: 5.78

COc1ccc(CCNC(=S)Nc2cccc3ccccc23)cc1
pEC50: 4.50

COc1cccc(C2CC(=O)Nc3cc(OC)c(OC)c(OC)c32)c1OC (stereo not given)
pEC50: 4.33

CNC[C@H](Cc1ccccc1)NC[C@@H](Cc1cccc2ccccc12)NCCc1ccc(C)cc1
pEC50: 5.32

CC(C)CCNCC(O)CON=C1c2ccccc2-c2ccccc21 (stereo not given)
pEC50: 4.99

COc1cccc(C(=O)Oc2c(CN3CCOCC3)cc(Cl)c3cccnc23)c1
pEC50: 5.15

CCCCC1(CCCC)C(=O)NC(=Nc2cccc(C)c2)NC1=O
pEC50: 4.41

O=C(CN1CC(c2ccccc2)CC1=O)N/N=C/c1cc(Br)ccc1O (stereo not given)
pEC50: 5.43

Cc1ccccc1Cn1c(=N)n(CC(=O)c2ccco2)c2ccccc21
pEC50: 4.64

COc1ccc(-n2c(CNc3ccc(C)cc3)nnc2SCc2ccccc2)cc1
pEC50: 4.48

OC(CNCCc1ccccc1)COc1ccc(OCC(O)CNCCc2ccccc2)cc1 (stereo not given)
pEC50: 5.22

O=C(Cn1nc(CNc2ccc(Cl)cc2)[n+]2c1CCCCC2)c1ccc(Br)cc1
pEC50: 4.93

CCn1c(SCC(=O)Nc2ccc3c(c2)oc2ccccc23)nnc1-c1ccc(N)cc1
pEC50: 4.52

COc1ccc(O)c(/C=c2/sc3nc4cc(C)c(C)cc4n3c2=O)c1
pEC50: 4.47

Cc1cc(C)n(-c2nc(NCCN(C)C)c3c4c(sc3n2)CCCC4)n1
pEC50: 5.33

O=C(NNc1nc(-c2ccccc2)cs1)c1ccccc1
pEC50: 4.58

Cc1ccc(O)c(-c2cc(-c3ccccc3C)[nH]n2)c1
pEC50: 4.70

O=C(CCN1CCc2ccccc2C(c2ccccc2)C1)c1ccc2c(c1)OCCO2 (stereo not given)
pEC50: 4.74

O=C(NCCNc1ccc([N+](=O)[O-])cc1C(F)(F)F)c1cccc(F)c1
pEC50: 4.32

Cc1ccccc1Nc1cc(C)c2c(O)cccc2n1
pEC50: 5.12

C/C(CC(=O)Nc1ccc(Cl)c(C(F)(F)F)c1)=N\NC(=O)c1ccccc1O
pEC50: 4.69

C#CCOCCOCCOCCNc1nc(N2CCN(C(=O)CCCCCCCCCCNC(=O)[C@H](CO)n3cc(CCCCCN)nn3)CC2)nc(N2CCN(C(=O)CCCCCCCCCCNC(=O)[C@H](CCCN=C(N)N)n3cc(C[C@@H](C)CC)nn3)CC2)n1
pEC50: 5.05

COc1cc(/C=C/[N+](=O)[O-])ccc1O
pEC50: 4.90

CCCn1c(NCc2c[nH]c3ccccc23)nc2ccccc21
pEC50: 4.64

O=C(NNC(=O)c1cnccn1)c1ccc(Cl)cc1
pEC50: 4.61

Cc1conc1NC(c1cccs1)c1ccc2cccnc2c1O (stereo not given)
pEC50: 5.26

CCCCOc1ccc(Br)cc1CSC(=N)N
pEC50: 5.24

Cc1ccc(C(=O)CSC2=C(C#N)C(c3ccco3)CC(=O)N2)c(C)c1 (stereo not given)
pEC50: 4.47

Cc1cccc(NC(=O)Cn2c(/C=C/c3ccccc3)nc3ccccc32)c1
pEC50: 4.35

C=C1c2c(Cl)ccc(O)c2C(O)=C2C(=O)[C@]3(O)C(O)=C(C(N)=O)C(=O)[C@@H](N(C)C)[C@@H]3[C@@H](O)C12 (stereo not given in full)
pEC50: 4.89

c1csc(C2Nc3cccc4cccc(c34)N2)c1
pEC50: 4.31

Oc1ccccc1NCC(O)Cn1ccc2ccccc21 (stereo not given)
pEC50: 4.55

CCOC(=O)CSc1n[nH]c(NC(=O)c2cccc(C)c2)n1
pEC50: 4.31

COc1ccc(OC)c(/C=N/NC(=O)c2cc3c(OC)c(OC)ccc3[nH]2)c1
pEC50: 4.36

COc1ccc(OC)c(C2C=C(C34CC5CC(CC(C5)C3)C4)NC(=S)N2)c1 (stereo not given)
pEC50: 4.30

O=C1C(SCCO)=C(SCCO)C(=O)c2ccccc21
pEC50: 5.09

CCCCCCCCCC[n+]1cccc2c3ccccc3ccc21
pEC50: 6.22

Nc1cccc2nc3ccccc3cc12
pEC50: 5.37

Cc1cc(SCC(=O)N/N=C/c2ccc(O)c(O)c2O)c(C)cc1Br
pEC50: 5.56

Cc1[nH]n(-c2ccccc2)c(=O)c1/C=N/Nc1nncc(-c2ccccc2)n1
pEC50: 6.24

Oc1ccc(CNc2ccccc2F)c2cccnc12
pEC50: 5.31

Cc1cc(O)ccc1Nc1nc2ccccc2nc1Nc1ccc(O)cc1C
pEC50: 4.61

Cc1cc(C(=O)N/N=C/c2cc(Br)cc(Br)c2OC(=O)c2ccccc2)n[nH]1
pEC50: 5.12

N=c1n(Cc2ccccc2)c2ccccc2n1CC(O)COc1ccc(Cl)cc1Cl (stereo not given)
pEC50: 5.54

O=c1c(Br)c(Br)cnn1-c1ccccc1
pEC50: 5.90

COc1ccccc1-n1c(SCc2cc(=O)oc3cc(O)ccc23)nc2ccccc2c1=O
pEC50: 4.66

CC1N(C)c2cc(NC(=O)c3ccco3)ccc2C1(C)C (stereo not given)
pEC50: 5.12

NC1=NC[C@H](Cc2ccc(O)cc2)N1CCCCC1CCCCC1
pEC50: 5.58

O=C(N/N=C/c1ccc(F)cc1)c1cc(-c2ccco2)nc2ccccc12
pEC50: 4.42

Cc1ccc(N=Nc2ccc(O)c(/C=N\NC(=O)c3ccc(N)cc3)c2)cc1C
pEC50: 5.48

C[C@H]1c2cccc(O)c2C(O)=C2C(=O)[C@]3(O)C(O)=C(C(N)=O)C(=O)[C@@H](N(C)C)C3[C@@H](O)C21 (stereo not given in full)
pEC50: 4.51

CCCCCCCCCCOC(=O)C[N+](C)(C)C/C=C(/C)Cl
pEC50: 5.07

C(=Nc1ccc(Nc2ccccc2)cc1)c1ccc2ccccc2c1
pEC50: 4.59

O=C1C(=O)c2ccccc2-c2ccccc21
pEC50: 5.10

Cc1ccc(C(=O)N/N=C/c2ccc([N+](=O)[O-])s2)cc1
pEC50: 4.91

c1ccc(CNc2nc(N3CCN(Cc4ccccc4)CC3)nc3ccccc23)cc1
pEC50: 4.67

O=C1c2ccccc2C2=Nc3ccccc3SC(c3cccc(F)c3)C12 (stereo not given)
pEC50: 5.05

O=Cc1ccc(O)c2ncccc12
pEC50: 5.42

c1ccc(Cc2nnc(-c3ccccc3)o2)cc1
pEC50: 4.51

Cc1cc2nc3ccc(=[N+](C)C)cc-3sc2cc1N
pEC50: 6.00

COc1c(Cl)cnn(-c2ccc(C)cc2)c1=O
pEC50: 4.78

Oc1ccc(C=Nc2cccc3ncccc23)c(O)c1
pEC50: 4.36
